What was measured:
U937 monocytes = assay: Phagocytic uptake of Gd-1 particles on U937 monocytes differentiated with TPA; format: cell-based
Experimental: The phagocytic uptake of the Gd-1 particles was carried out on U937 monocytes previously treated for three days with TPA to induce cell differentiation. The size of the Gd-1 particles was determined by electron microscope observation and the measured diameter ranged from 0.5 to 10 μm. Most particles had diameter <10 μm, which is sufficiently small to allow the phagocytic process. The uptake was carried out at 37° C. and the cells were incubated with two different amounts of Gd-1 at subsequent times (1 to 12 hours). After incubation at 37° C. for several hours, the medium was removed and the cells were washed three times with 5 mL PBS. In these conditions, Gd-1 particles suspended in the medium are not solubilised; in fact, the relaxivity of the medium remains very close to that of pure water (0.45 s^−1). The amount of Gd(III) detected in the cells is directly proportional to incubation time and in 12 hours the saturation of the kinetic curve is not reached (FIG. 3). As expected, the amount of phagocyted Gd(III) is proportional to the amount of complex added to the culture medium at time zero. It is interesting to compare this behaviour with the water proton relaxation rate in the cytosolic extract. This was obtained by freezing three times the cells at −80° C. after completion of phagocytosis. […]

macrophages esterase = assay: Macrophage lysate esterase on Gd-1 (R1 increase); format: biochemical; conditions: about 4×10^6 macrophages lysed by sonication, about 1 mg Gd-1
Experimental: Afterwards, the macrophages esterase was tested. For this purpose, about 4×10^6 macrophages were subjected to lysis by sonication and about 1 mg Gd-1 was added to the lysate. The enzyme present in the cellular lysate rapidly cleaves the hydrophobic ester groups, thus releasing the soluble Gd complex. The formation of soluble Gd complex is well followed by the increase of water proton relaxation rate (FIG. 2). After about two hours the enzymatic reaction reaches the steady state.

[1] = biological target: lipase from Chromobacterium viscosum [EC 3.1.1.34] (Pseudarthrobacter phenanthrenivorans, UniProt P0DUB9); assay: In vitro evaluation of lipase activity on Gd-1 particles (turbidity, R1); format: biochemical; conditions: HEPES buffer 50 mM, pH=8, 310K
Experimental: (§1) The activity of two different enzymes (esterase from swine liver [EC3.1.1.1] and lipase from Chromobacterium viscosum [EC 3.1.1.34]) was evaluated on Gd-1 particles.
(§2) This behaviour was confirmed by measurements of the water protons relaxation rate (R1) on a NMR spectrometer (Stelar Spinmaster) operating at 0.5T and 298K.
(§3) In the presence of the esterase (2 mg) R1 rapidly rises and after 2-3 hours reaches the value expected for a soluble Gd(III) complex resulting from the hydrolysis of the ester bonds of the Gd-1 complex. The differences in the two observed curves, and therefore the different reaction kinetics, can be ascribed to the different amounts of active units per mg of the two enzymes added to the Gd complex suspension.

neutrophiles = assay: Labelling of neutrophiles with sonicated Gd-1 particles; format: cell-based; conditions: ca. […]10^6 neutrophiles, 0.4 mg particles, 37° C.
Experimental: One of the applications for labelled cells deals with the identification of infection loci in patients affected by fever of unknown origin. This imply the labelling of Neutrophiles obtained from the standard procedures from a specimen of blood drawn from the patient. After labelling the neutrophiles have to be re-injected in the patient who is subjected to MRI examination.
The labelling of neutrophiles (ca. 2.5×10^6) has been carried out by incubating them (5 ml) in a medium containing 0.4 mg of particles of Gd-1 prepared according to example 5.
After 2.5 h of incubation at 37° C., the cells were harvested, whashed several times with PBS, then analyzed. The content of Gd per mg protein is 8.8×10^−8 moles, i.e. an amount that after the intracellular degradation of the particle, is well sufficient to allow the visualization of the labelled cells by MRI techniques.

U937 cells = assay: Internalization assay of sonicated Gd-1 particles with U937 cells endowed with macrophagic activity; format: cell-based; conditions: 0.2 mg Gd-1 in medium, ca. 4 hours incubation
Experimental: The particles obtained by the sonication procedure described in example 5 has been tested in an internalization assay with the U937 cells endowed with macrophagic activity. The incubation medium contains 0.2 mg of Gd-1 (total). After ca. 4 hours of incubation the amount of Gd internalized reached a maximum value of 2×10^−8 moles/mg of protein. This means that ca 10% is taken up by the cells. Such amount is well sufficient to allow the visualisation of these cells. Once the enzymatic degradation process proceeds the signal intensity progressively increases to reach a steady state which lasts for a time long enough for the type of applications of this protocol.

[2] = system: esterase from swine liver [EC3.1.1.1]; assay: In vitro evaluation of esterase activity on Gd-1 particles (turbidity, water proton relaxation rate R1); format: biochemical
Experimental: as §1, §2, §3

[3] = system: U937 monocytes differentiated to macrophages; assay: Intracellular esterase activity on Gd-1 in intact cells; format: cell-based
Experimental: An experiment for evaluating the enzymatic activity inside intact cells was set up, using Gd-1 particles as probes. For this purpose, different capsules containing about 2×10^6 cells (U937 monocytes differentiated to macrophages as described above) were incubated with ca. 5 mg of Gd-1 particles suspended in 5 mL medium (RPMI) for four hours at 37° C. After this period the cells were washed three times with PBS, covered with further 5 ml RPMI and re-incubated for different times at 37° C. In this way it was possible to isolate the contribution deriving from the esterase-catalysed hydrolysis of Gd-1 particles for the time interval that […] the internalisation step. The proton relaxation rate was measured at successive time intervals (0.5, 1, 2 hours). After 4 hours incubation in the presence of Gd-1 particles the cells internalise about 60 nmol complex, but only 50% of the internalised particles is hydrolysed in this time and contributes to the total relaxivity. In fact, the relaxivity of the cytosolic extract is 2.5 when the cells are resuspended in a medium devoid of Gd-1 and raises to 3.7 in the following two hours of enzymatic hydrolysis. It can be therefore assumed that 80% of Gd-1 internalised particles have been solubilised by cellular esterases (FIG. 5).

lipase from Chromobacterium viscosum [EC 3.1.1.34], sequence (P0DUB9 whole entry): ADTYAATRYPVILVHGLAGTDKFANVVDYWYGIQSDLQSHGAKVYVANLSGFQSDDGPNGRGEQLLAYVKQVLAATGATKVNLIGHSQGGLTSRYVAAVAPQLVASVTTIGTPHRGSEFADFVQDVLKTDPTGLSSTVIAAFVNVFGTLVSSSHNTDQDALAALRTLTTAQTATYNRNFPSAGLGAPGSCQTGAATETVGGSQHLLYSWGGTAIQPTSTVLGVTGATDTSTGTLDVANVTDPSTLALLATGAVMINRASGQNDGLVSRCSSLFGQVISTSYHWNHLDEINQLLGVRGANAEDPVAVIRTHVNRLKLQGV

Row | SMILES | presence of the complex in the cells (relaxation rate of water protons in the cytosolic extract) (U937 monocytes; soluble complex incubated in the same conditions as Gd-1 particles) | time for the enzymatic reaction to reach the steady state (macrophages esterase) | relaxivity of the medium with suspended particles (U937 monocytes; culture medium, 37° C., particles not solubilised) [s⁻¹] | turbidity of the suspension in the presence of the enzyme [1] | content of Gd per mg protein (neutrophiles) [mol] | amount of Gd internalized (maximum value) (U937 cells) | fraction taken up by the cells (U937 cells) [%] | turbidity of the suspension in the presence of the enzyme ([2]; HEPES buffer 50 mM, pH=8, 310K) | time for R1 to reach the value expected for a soluble Gd(III) complex ([2]; esterase 2 mg) [h] | water protons relaxation rate (R1) in the absence of enzyme ([2]; no enzyme, 0.5T, 298K, not different from pure water) [s⁻¹] | amount of complex internalised by the cells ([3]; about 2×10^6 cells, ca. 5 mg particles in 5 mL RPMI, 4 hours, 37° C.) | fraction of the internalised particles hydrolysed ([3]; after 4 hours incubation with particles) [%] | relaxivity of the cytosolic extract ([3]; after the following two hours of enzymatic hydrolysis) | fraction of internalised particles solubilised by cellular esterases ([3]; after two further hours of hydrolysis) [%] | relaxivity of the cytosolic extract ([3]; when cells are resuspended in a medium devoid of Gd-1)
1 | CC(O)CN1CCN(CC(=O)[O-])CCN(CC(=O)[O-])CCN(CC(=O)[O-])CC1.[Gd+3] (stereo not drawn) [Gd-HPDO3A, reference compound] | complete absence | – | – | – | – | – | – | – | – | – | – | – | – | – | –
2 | CCCCCCCCCCCCCCCCCC(=O)OCCOCCNC(=O)CN(CCN(CCN(CC(=O)O)CC(=O)NCCOCCOC(=O)CCCCCCCCCCCCCCCCC)CC(=O)O)CC(=O)O [Gd-1] | – | about two | ~0.45 | progressive decrease in turbidity | 8.8e-08 | 2×10^−8 moles/mg of protein | ~10 | progressive decrease in turbidity | 2 to 3 | 0.38 | about 60 nmol | 50 | 3.7 | 80 | 2.5

Reference: US20060115431A1, “Procedures of cellular labelling with paramagnetic complexes for mri applications” (Bracco Imaging S.p.A., priority 2002, published 2006)
